biological target: T1, human PTH1 receptor (Homo sapiens, UniProt Q03431); test: In vitro cAMP signal activity in HKRK-B7 cells (LLC-PK1 cells overexpressing the human PTH1 receptor); type: cell-based; details: HKRK-B7 cells; compound at 1×10^−3 M; […]; 0.1 µM
T1 sequence (Q03431 27-593): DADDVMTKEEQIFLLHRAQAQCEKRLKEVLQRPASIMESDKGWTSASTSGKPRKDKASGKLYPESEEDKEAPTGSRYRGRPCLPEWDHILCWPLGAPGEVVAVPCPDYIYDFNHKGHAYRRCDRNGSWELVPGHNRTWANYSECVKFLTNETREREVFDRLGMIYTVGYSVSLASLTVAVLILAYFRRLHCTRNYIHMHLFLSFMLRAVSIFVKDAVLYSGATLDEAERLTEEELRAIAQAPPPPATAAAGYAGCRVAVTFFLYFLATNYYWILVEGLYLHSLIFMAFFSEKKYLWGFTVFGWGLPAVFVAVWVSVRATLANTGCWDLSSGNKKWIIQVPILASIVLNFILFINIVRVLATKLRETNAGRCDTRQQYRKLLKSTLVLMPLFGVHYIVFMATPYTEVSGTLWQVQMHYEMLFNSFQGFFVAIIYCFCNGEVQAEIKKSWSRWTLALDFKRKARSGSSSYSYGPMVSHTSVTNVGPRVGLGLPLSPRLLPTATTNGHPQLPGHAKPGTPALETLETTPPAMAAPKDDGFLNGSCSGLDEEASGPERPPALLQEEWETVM

Compound	cAMP production activity (%)
Cc1cc(N(C)C(=O)NCCN(C)C)ccc1/C=C/S(=O)(=O)N1CCC2(CC1)N=C(c1cccc(OC(F)(F)F)c1)NC2=O [Compound 457, 3-(2-Dimethylamino-ethyl)-1-methyl-1-(3-methyl-4-{(E)-2-[4-oxo-2-(3-trifluoromethoxy-phenyl)-1,3,8-triaza-spiro[4.5]dec-1-ene-8-sulfonyl]-vinyl}-phenyl)-urea]	25
CNC(=O)Nc1cccc(CCS(=O)(=O)N2CCC3(CC2)N=C(C2CCCCC2)NC3=O)c1C [Compound 459, 1-{3-[2-(2-Cyclohexyl-4-oxo-1,3,8-triaza-spiro[4.5]dec-1-ene-8-sulfonyl)-ethyl]-2-methyl-phenyl}-3-methyl-urea]	55
COCCOC(=O)N1CCCC(C2=NC3(CCN(S(=O)(=O)c4cccc(Cl)c4)CC3)C(=O)N2)C1 (centres unmarked) [Compound 460, 3-[8-(3-Chloro-benzenesulfonyl)-4-oxo-1,3,8-triaza-spiro[4.5]dec-1-en-2-yl]-piperidine-1-carboxylic acid 2-methoxy-ethyl ester]	18
Cc1cc(N(C)C(=O)OCCN(C)C)ccc1/C=C/S(=O)(=O)N1CCC2(CC1)N=C(c1cccc(OC(F)(F)F)c1)NC2=O [Compound 466, Methyl-(3-methyl-4-{(E)-2-[4-oxo-2-(3-trifluoromethoxy-phenyl)-1,3,8-triaza-spiro[4.5]dec-1-ene-8-sulfonyl]-vinyl}-phenyl)-carbamic acid 2-dimethylamino-ethyl ester]	23
COC(=O)N(C)c1ccc(CCS(=O)(=O)N2CCC3(CC2)N=C(c2cccc(OC(F)(F)F)c2)NC3=O)c(C)c1 [Compound 468, Methyl-(3-methyl-4-{2-[4-oxo-2-(3-trifluoromethoxy-phenyl)-1,3,8-triaza-spiro[4.5]dec-1-ene-8-sulfonyl]-ethyl}-phenyl)-carbamic acid methyl ester]	90

same assay, conditions: HKRK-B7 cells; compound at 1×10^−3 M; cAMP produced as percentage of that produced by hPTH(1-34) at 100 nM

cAMP production activity (%)	Compound
16	CC(C)(C)CCN1CCCC(C2=NC3(CCN(S(=O)(=O)c4cccc(Cl)c4)CC3)C(=O)N2)C1 (centres unmarked) [Compound 453, 8-(3-Chloro-benzenesulfonyl)-2-[1-(3,3-dimethyl-butyl)-piperidin-3-yl]-1,3,8-triaza-spiro[4.5]dec-1-en-4-one]
19	CC(C)(C)NC(=O)N1CCCC(C2=NC3(CCN(S(=O)(=O)c4cccc(Cl)c4)CC3)C(=O)N2)C1 (centres unmarked) [Compound 454, 3-[8-(3-Chloro-benzenesulfonyl)-4-oxo-1,3,8-triaza-spiro[4.5]dec-1-en-2-yl]-piperidine-1-carboxylic acid tert-butylamide]
31	O=C(NCCc1ccccc1)N1CCCC(C2=NC3(CCN(S(=O)(=O)CCc4cccc5ccccc45)CC3)C(=O)N2)C1 (centres unmarked) [Compound 455, 3-[8-(2-naphthalen-1-yl-ethanesulfonyl)-4-oxo-1,3,8-triaza-spiro[4.5]dec-1-en-2-yl]-piperidine-1-carboxylic acid phenethyl-amide]
28	O=C(N1CCCCC1)N1CCCC(C2=NC3(CCN(S(=O)(=O)c4cccc(Cl)c4)CC3)C(=O)N2)C1 (centres unmarked) [Compound 456, 8-(3-Chloro-benzenesulfonyl)-2-[1-(piperidine-1-carbonyl)-piperidin-3-yl]-1,3,8-triaza-spiro[4.5]dec-1-en-4-one]
51	O=C(OCc1ccccc1)N1CCCC(C2=NC3(CCN(S(=O)(=O)c4cccc(Cl)c4)CC3)C(=O)N2)C1 (centres unmarked) [Compound 461, 3-[8-(3-chloro-benzenesulfonyl)-4-oxo-1,3,8-triaza-spiro[4.5]dec-1-en-2-yl]-piperidine-1-carboxylic acid benzyl ester]
47	CC(C)COC(=O)N1CCCC(C2=NC3(CCN(S(=O)(=O)c4cccc(Cl)c4)CC3)C(=O)N2)C1 (centres unmarked) [Compound 462, 3-[8-(3-chloro-benzenesulfonyl)-4-oxo-1,3,8-triaza-spiro[4.5]dec-1-en-2-yl]-piperidine-1-carboxylic acid isobutyl ester]
28	COC(=O)N1CCCC(C2=NC3(CCN(S(=O)(=O)c4cccc(Cl)c4)CC3)C(=O)N2)C1 (centres unmarked) [Compound 463, 3-[8-(3-chloro-benzenesulfonyl)-4-oxo-1,3,8-triaza-spiro[4.5]dec-1-en-2-yl]-piperidine-1-carboxylic acid methyl ester]
66	CC(C)(C)COC(=O)N1CCCC(C2=NC3(CCN(S(=O)(=O)CCc4cccc5ccccc45)CC3)C(=O)N2)C1 (centres unmarked) [Compound 465, 3-[8-(2-naphthalen-1-yl-ethanesulfonyl)-4-oxo-1,3,8-triaza-spiro[4.5]dec-1-en-2-yl]-piperidine-1-carboxylic acid 2,2-dimethyl-propyl ester]

The remaining lines, values behind:

Compound	cAMP production activity (%)
COCC(=O)N(C)c1ccc(/C=C/S(=O)(=O)N2CCC3(CC2)N=C(c2cccc(OC(F)(F)F)c2)NC3=O)c(C)c1 [Compound 450, 2-Methoxy-N-methyl-N-(3-methyl-4-{(E)-2-[4-oxo-2-(3-trifluoromethoxy-phenyl)-1,3,8-triaza-spiro[4.5]dec-1-ene-8-sulfonyl]-vinyl}-phenyl)-acetamide]	56
Cc1cc(N(C)C(=O)CO)ccc1/C=C/S(=O)(=O)N1CCC2(CC1)N=C(c1cccc(OC(F)(F)F)c1)NC2=O [Compound 451, 2-Hydroxy-N-methyl-N-(3-methyl-4-{(E)-2-[4-oxo-2-(3-trifluoromethoxy-phenyl)-1,3,8-triaza-spiro[4.5]dec-1-ene-8-sulfonyl]-vinyl}-phenyl)-acetamide]	96
Cc1cc(C(=O)N(C)CC(=O)O)cc(C)c1/C=C/S(=O)(=O)N1CCC2(CC1)N=C(c1cccc(C(F)(F)F)c1)NC2=O [Compound 452, [(3,5-Dimethyl-4-{(E)-2-[4-oxo-2-(3-trifluoromethyl-phenyl)-1,3,8-triaza-spiro[4.5]dec-1-ene-8-sulfonyl]-vinyl}-benzoyl)-methyl-amino]-acetic acid]	58
Cc1cc(N(C)C(N)=O)ccc1/C=C/S(=O)(=O)N1CCC2(CC1)N=C(c1cccc(OC(F)(F)F)c1)NC2=O [Compound 458, 1-methyl-1-(3-methyl-4-{(E)-2-[4-oxo-2-(3-trifluoromethoxy-phenyl)-1,3,8-triaza-spiro[4.5]dec-1-ene-8-sulfonyl]-vinyl}-phenyl)-urea]	77
O=C(OCc1ccccc1)N1CCCC(C2=NC3(CCN(S(=O)(=O)CCc4cccc5ccccc45)CC3)C(=O)N2)C1 (centres unmarked) [Compound 464, 3-[8-(2-naphthalen-1-yl-ethanesulfonyl)-4-oxo-1,3,8-triaza-spiro[4.5]dec-1-en-2-yl]-piperidine-1-carboxylic acid benzyl ester]	54
COC(=O)N(C)c1ccc(/C=C/S(=O)(=O)N2CCC3(CC2)N=C(c2cccc(OC(F)(F)F)c2)NC3=O)c(C)c1 [Compound 467, methyl-(3-methyl-4-{(E)-2-[4-oxo-2-(3-trifluoromethoxy-phenyl)-1,3,8-triaza-spiro[4.5]dec-1-ene-8-sulfonyl]-vinyl}-phenyl)-carbamic acid methyl ester]	60
Cc1ccccc1CCS(=O)(=O)N1CCC2(CC1)N=C(C1CCCCC1)NC2=S [Compound 469, 2-Cyclohexyl-8-(2-o-tolyl-ethanesulfonyl)-1,3,8-triaza-spiro[4.5]dec-1-ene-4-thione]	47

— patent US9169254B2, “Spiroimidazolone derivative” (Chugai Seiyaku Kabushiki Kaisha, priority 2009, dated 2015)
